Source: US6503873B1, “Ultra mild detergent compositions” (Hampshire Chemical Corp, priority 1996, dated 2003)

Tests used:
[1] = Lather stability (lather drainage time, method of Hart and DeGeorge); format: physicochemical; conditions: for enhancement of lather stability of the product by addition as one-third of the product: 3:1 blend; for change in lather stability (lather drainage time) on addition of water hardness: approximately 3,000 ppm water hardness (CaCO3), FIG. 2
Method: The lather stability of a surfactant solution, expressed as lather drainage time, can be determined by the method of Hart and DeGeorge, J. Soc. Cosmet. Chem., 31, 223-226 (1980). In this method, a 200 ml portion of the test solution is agitated in a blender for one minute. The lather produced is immediately poured into a Nalgene PF150 funnel, which has been modified for easy detection of endpoint by incorporation of a fine strand of Nicrome wire across the funnel, where the diameter is 9 cm. The funnel is supported by a 20-mesh sieve. The time elapsed between pouring of the blender contents into the funnel and reappearance of the wire through the subsiding foam, determined using a stopwatch, is reported as the lather drainage time in seconds.

human skin cels = assay: In vitro skin irritation testing (MTT assay); format: cell-based; conditions: tissue immersed for 24 hours; about 16% solutions
Method: Samples of 1) the aforementioned commercial baby shampoo, 2) Na2LED3A, 3) a 3:1 ratio blend of baby shampoo and Na2LED3A, and 4) a 16% solution of sodium laureth 3 sulfate (a surfactant commonly used in ordinary shampoo) were subjected to in vitro skin irritation testing. A sample of the tissue is immersed for 24 hours in a solution of the substance to be evaluated and later assayed for viable mitochondria by an MTT assay. The MTT assay is a colorimetric method for determining cell viability based on the reduction of a tetrazolium salt (MTT) into a colored formazan dye by mitochondrial enzymes of the electron transport chain. The extent to which the number of viable mitochondria has been reduced, compared to a control, is taken as a measure of the toxicity of the test substance to human skin cels. The in vitro scoring classification used was as follows: […]

[2] = product Johnsons Baby 2 in 1 shampoo, hard water (200 ppm CaCO3)
[3] = product Johnsons Baby 2 in 1 shampoo, soft water
[4] = product Johnsons Baby Bath, hard water (200 ppm CaCO3)
[5] = product Johnsons Baby Bath, soft water
[6] = product Johnsons Baby Shampoo, hard water (200 ppm CaCO3)
[7] = product Johnsons Baby Shampoo, soft water
[8] = product Suave Baby Care, hard water (200 ppm CaCO3)
[9] = product Suave Baby Care, soft water
[10] = sodium chloride, 1% solution, pH 7, FIG. 1

| Molecule | enhancement of lather stability of the product by addition as one-third of the product [1, 2] | enhancement of lather stability of the product by addition as one-third of the product [1, 3] | enhancement of lather stability of the product by addition as one-third of the product [1, 4] | enhancement of lather stability of the product by addition as one-third of the product [1, 5] | enhancement of lather stability of the product by addition as one-third of the product ([1]; product Johnsons Baby Shampoo, even harder water (400 ppm CaCO3)) | enhancement of lather stability of the product by addition as one-third of the product [1, 6] | enhancement of lather stability of the product by addition as one-third of the product [1, 7] | enhancement of lather stability of the product by addition as one-third of the product [1, 8] | enhancement of lather stability of the product by addition as one-third of the product [1, 9] | lather effectiveness relative to the baby shampoo alone ([1]; pure substance, hard water, versus Johnsons Baby 2 in 1 shampoo, FIG. 11) | change in lather stability (lather drainage time) on addition of water hardness ([1]; 1% solution) | lather drainage time depressed by, upon addition of 4% electrolyte [1, 10] [s] | Classification (in vitro skin irritation) (human skin cels) | In vitro Score MTT-50 (human skin cels) | lather drainage time ([1]; in the presence of 200 ppm hardness, FIG. 10) | lather drainage time increased by, upon addition of 4% electrolyte [1, 10] |
| --- | --- | --- | --- | --- | --- | --- | --- | --- | --- | --- | --- | --- | --- | --- | --- | --- |
| CCCCCCCCCCCC(=O)N(CCN(CC(=O)[O-])CC(=O)[O-])CC(=O)O.[K+].[K+] [K2LED3A, potassium lauroyl-ED3A] | approximately 7 fold | more than 2 fold | approximately 12 fold | approximately 5 fold | more than 24 fold | more than 14 fold | approximately 8 fold | 5 fold | approximately 2 fold |  |  |  |  |  |  |  |
| CCCCCCCCCCCCCC(=O)N(CCN(CC(=O)[O-])CC(=O)[O-])CC(=O)O.[Na+].[Na+] [Na2MED3A, sodium myristoyl ED3A] | 9 fold | more than 9 fold |  |  |  |  |  |  |  | more than 100 times |  |  |  |  |  |  |
| CCCCCCCCCCCCOS(=O)(=O)[O-].[Na+] [sodium lauryl sulfate, reference compound] |  |  |  |  |  |  |  |  |  |  | five-fold reduction | 30 |  |  |  |  |
| sodium laureth 3 sulfate [Na Laureth(3) sulfate, reference compound] |  |  |  |  |  |  |  |  |  |  |  |  | Moderate (201-1,000) | 522 micro g/ml |  |  |
| sodium lauroyl ED3A [Na2LED3A] | 5 fold | approximately 6 fold | more than 12 fold | more than 4 fold |  | approximately 7 fold | approximately 7 fold | more than 5 fold | more than doubled |  | five-fold increase |  | Non-irritant (>10,000) | >10,000 micro g/ml | over 200 seconds | more than 70 seconds |
